Test results: patent publication US5773014A, “Compositions and methods for inhibiting the formation of unwanted skin pigmentation” (priority 1996, dated 1998)
Values after ≈ are worked out from the molar mass of the structure shown.

Columns and labels:
tyrosinase = test: in vitro tyrosinase inhibition (dopachrome formation from L-Dopa, spectrophotometry at 475 nm); type: biochemical
Text: Tyrosinase catalyzes the formation of L-dopaquinone, and then dopachrome (in the eumelanin pathway), from L-Dopa. […] Comparisons in the rate at which this colored substance appears in the presence of a candidate whitening material indicate the effect of the material on enzymatic activity; complete absence of dopachrome reflects total inhibition of tyrosinase.

cells in a culture = settings: reported for other skin whiteners; cited from earlier work
solubility = type: physicochemical; settings: read-out: max. solubility
human skin explants = settings: 0.55% (w/v), positive control; L-Dopa 0.05M, 15 hours at 37° C.
Protocol: The anti-tyrosinase activity of the invention was also evaluated using an ex vivo tissue model by exposing human skin explants to the material. […] Oxidation of L-Dopa by tyrosinase produces in the melanocyte an observable black pigment, which can easily be detected by optical microscopy. Tyrosinase activity can be measured by the intensity of the observed coloration.
A positive control and a negative control were also conducted in the same experiment. […] The explants, each exposed to a different test solution, were incubated with L-Dopa (0.05M) for 15 hours at 37° C. After fixation and inclusion in paraffin, the skin slices were colored with hemalun/eosin/safran and cresyl violet, and observed by optical microscopy under white light.

SMILES | Tyrosinase Inhibition (%) (tyrosinase; concentration 0.1%) | IC50 (cytotoxicity, kills more than 50% of the cells in a culture) (cells in a culture) [µg/mL] | Tyrosinase Inhibition (%) (tyrosinase; concentration 1%) | Tyrosinase Inhibition (%) (tyrosinase; concentration 5%) | also measured
O=C(O)CN(CCN(CC(=O)O)CC(=O)O)CC(=O)O [EDTA, ethylenediaminetetraacetic acid] | 0 | – | 47.3 | 78.9 | –
OC[C@H]1O[C@@H](Oc2ccc(O)cc2)[C@H](O)[C@@H](O)[C@@H]1O [Pure Arbutin, arbutin] | – | – | – | 45 | solubility (solubility): 50 mg/mL (≈ 184 mM); Tyrosinase Inhibition (%) (tyrosinase; concentration 0.2%): 20%; Tyrosinase Inhibition (%) (tyrosinase; concentration 0.5%): 25%; Tyrosinase Inhibition (%) (tyrosinase; concentration 2.5%): 35%
Oc1ccc(O)cc1 [hydroquinone] | – | 5.5 | – | – | formation of melanin in explant melanocytes (human skin explants): completely inhibited the formation of melanin; tyrosinase-inhibiting activity (in words) (tyrosinase; tested at different concentrations (FIG. 1)): exhibits no tyrosinase-inhibiting activity
CCCCC/C=C\C/C=C\CCCCCCCC(=O)O [linoleic acid] | – | 2.8 | – | – | –

Now from value to molecule, other results behind:

Tyrosinase Inhibition (%) (tyrosinase; concentration 0.1%) | SMILES | IC50 (cytotoxicity, kills more than 50% of the cells in a culture) (cells in a culture) [µg/mL] | Tyrosinase Inhibition (%) (tyrosinase; concentration 1%) | Tyrosinase Inhibition (%) (tyrosinase; concentration 5%) | also measured
66 | O=C1O[C@H]([C@@H](O)CO)C(O)=C1O [Ascorbic acid, ascorbic acid] | 880 | – | – | –
71 | O=c1cc(CO)occ1O [kojic acid] | – | 80 | – | –
